Measurements published in PMC6271988, “New Potentially Active Pyrazinamide Derivatives Synthesized Under Microwave Conditions” (Molecules, 2014).
Converted amounts (≈) assume the structure as drawn. Like-named read-outs stand apart in the source and are kept apart here.

Legend:
[1] = test system: PET in spinach chloroplasts; experiment: Photosynthetic electron transport (PET) inhibition, DCPIP photoreduction; format: biochemical, Spinacia oleracea L.; settings: for IC50: DCPIP photoreduction
Description: The inhibition of photosynthetic electron transport (PET) in spinach chloroplasts was determined spectrophotometrically (Genesys 6, Thermo Scientific, Madison, WI, USA) using an artificial electron acceptor 2,6-dichlorophenol-indophenol (DCPIP). The rate of photosynthetic electron transport was monitored as a photoreduction of DCPIP. Chloroplasts were prepared from Spinacia oleracea L.. The measurements were carried out in phosphate buffer (0.02 mol/L, pH 7.2) containing sucrose (0.4 mol/L), MgCl2 (0.005 mol/L) and NaCl (0.015 mol/L). The chlorophyll concentration was 30 mg/L and the samples were irradiated (~100 W/m^2 with 10 cm distance) with a halogen lamp (250 W). […] The studied compound were dissolved in DMSO due to their limited water solubility. […] The efficiency of studied compounds was expressed as 50% inhibition concentration relative to the untreated control. The standard for these measurements was DCMU (Diurone®).

[2] = Lipophilicity HPLC determination (logk); format: physicochemical; settings: HPLC capacity factor, C18, MeOH 70%/H2O 30%, 30 °C
[3] = test system: Mycobacterium tuberculosis H37Rv; experiment: Antimycobacterial in vitro screening, microdilution broth panel method, Alamar Blue; format: cell-based; settings: 336 h, M. tuberculosis H37Rv, Middlebrook 7H9, 14 days of incubation
[4] = test system: Candida albicans ATCC 44859; experiment: Antifungal evaluation, microdilution broth method; format: cell-based; settings: CA
Description: (§1) Antifungal evaluation was also accomplished with microdilution broth method. On the contrary, there was used RPMI 1640 broth with glutamine as medium and conditions were humid and dark atmosphere, pH 7.0 (adjusted with 0.165 M morpholinepropanesulfonic acid, MOPS) and 35 °C. 8 fungal strains were used (Candida albicans ATCC 44859, Candida tropicalis 156, Candida krusei E28, Candida glabrata 20/I, Trichosporon asahii 1188, Aspergillus fumigatus 231, Lichtheimia corymbifera 272, Trichophyton mentagrophytes 445) together with four antimycotic standards amphotericin B, voriconazole, nystatin and fluconazole.

[5] = test system: Aspergillus fumigatus 231; experiment: Antifungal evaluation, microdilution broth method; format: cell-based; settings: AF
Description: as §1

[6] = test system: Candida tropicalis 156; experiment: Antifungal evaluation, microdilution broth method; format: cell-based; settings: CT
Description: as §1

[7] = test system: Candida glabrata 20/I; experiment: Antifungal evaluation, microdilution broth method; format: cell-based; settings: CG
Description: as §1

[8] = test system: Lichtheimia corymbifera 272; experiment: Antifungal evaluation, microdilution broth method; format: cell-based; settings: LC
Description: as §1

[9] = test system: Trichosporon asahii 1188; experiment: Antifungal evaluation, microdilution broth method; format: cell-based; settings: TA
Description: as §1

[10] = test system: Trichophyton mentagrophytes 445; experiment: Antifungal evaluation, microdilution broth method; format: cell-based; settings: TM
Description: as §1

[11] = test system: Candida krusei E28; experiment: Antifungal evaluation, microdilution broth method; format: cell-based; settings: CK
Description: as §1

[12] = test system: spectrum of fungi tested (8 fungal strains); experiment: Antifungal evaluation, summary over the fungi tested; format: cell-based
Description: as §1

[13] = test system: Staphylococcus epidermidis; experiment: Antibacterial in vitro screening, microdilution broth method; format: cell-based; settings: 80% inhibition of control
[14] = Candida albicans, ATCC44859, 24 h
[15] = Candida albicans, ATCC44859, 48 h
[16] = Aspergillus fumigatus, 231, 24 h
[17] = Aspergillus fumigatus, 231, 48 h
[18] = Nakaseomyces glabratus, 20/I, 24 h
[19] = Nakaseomyces glabratus, 20/I, 48 h
[20] = Lichtheimia corymbifera, 272, 24 h
[21] = Lichtheimia corymbifera, 272, 48 h
[22] = Trichosporon asahii, 1188, 24 h
[23] = Trichosporon asahii, 1188, 48 h
[24] = Trichophyton mentagrophytes, 445, 72 h
[25] = Trichophyton mentagrophytes, 445, 120 h
[26] = fungi tested, less active than the standards, read-out: IC80 antifungal

CN1CCN(c2nccnc2C(N)=O)CC1 [Compound 17, 3-(4-Methylpiperazin-1-yl)pyrazine-2-carboxamide]
PET inhibition (result in words) [1]: did not inhibit PET
logk [2]: −0.4253

CCCCCCCCNc1nccnc1C(N)=O [Compound 9, 3-(Octylamino)pyrazine-2-carboxamide]
IC50 [1]: 14.3 µM
logk [2]: 1.1533

3-(Piperidin-1-ylamino)pyrazine-2-carboxamide [Compound 15]
PET inhibition (result in words) [1]: did not inhibit PET
logk [2]: −0.2333

CNc1nccnc1C(N)=O [Compound 1, 3-(Methylamino)pyrazine-2-carboxamide]
PET inhibition (result in words) [1]: did not inhibit PET
logk [2]: −0.4028

NC(=O)c1cnccn1 [pyrazinamide]
MIC [3]: 12.5 µg/mL (≈ 102 µM)

3-(Pyrrolidin-1-ylamino)pyrazine-2-carboxamide [Compound 14]
PET inhibition (result in words) [1]: did not inhibit PET
logk [2]: −0.4889

NC(=O)c1nccnc1N1CCNCC1 [Compound 18, 3-(Piperazin-1-yl)pyrazine-2-carboxamide]
PET inhibition (result in words) [1]: did not inhibit PET
logk [2]: −2.3522

C[C@@H]1[C@H](O)[C@@H](C)/C=C/C=C/CC/C=C/C=C/C=C/C=C/C(O[C@H]2O[C@H](C)[C@@H](O)[C@H](N)[C@@H]2O)CC2O[C@](O)(CC(O)C(O)CCC(O)CC(O)CC(O)CC(=O)O[C@H]1C)CC(O)C2C(=O)O (stereo partly shown) [NYS, nystatin]
IC80 ([4]; 24 h): 0.98 µM
IC80 ([4]; 48 h): 1.95 µM
IC80 ([5]; 24 h): 1.95 µM
IC80 ([5]; 48 h): 3.9 µM
IC80 ([6]; 24 h): 1.95 µM
IC80 ([6]; 48 h): 3.9 µM
IC80 ([7]; 24 h): 1.95 µM
IC80 ([7]; 48 h): 3.9 µM
IC80 ([8]; 24 h): 15.6 µM
IC80 ([8]; 48 h): 31.2 µM
IC80 ([9]; 24 h): 1.95 µM
IC80 ([9]; 48 h): 1.95 µM
IC80 ([10]; 72 h): 3.9 µM
IC80 ([10]; 120 h): 7.81 µM
IC80 ([11]; 24 h): 1.95 µM
IC80 ([11]; 48 h): 3.9 µM

NC(=O)c1nccnc1NC1CCCCC1 [Compound 12, 3-(Cyclohexylamino)pyrazine-2-carboxamide]
IC80 ([12]; nearly a whole spectrum of fungi tested, after 24 h of incubation, read-out: 80% inhibition of control (IC80), range over fungi): 15.6 to 31.2 µM
IC50 [1]: 83 µM
logk [2]: 0.4523
IC80 [4, 14]: 31.2 µM
IC80 [4, 15]: 62.5 µM
IC80 [5, 16]: 15.6 µM
IC80 [5, 17]: 62.5 µM
IC80 ([6]; Candida tropicalis, 156, 24 h): 125 µM
IC80 ([6]; Candida tropicalis, 156, 48 h): 500 µM
IC80 [7, 18]: 15.6 µM
IC80 [7, 19]: 31.2 µM
IC80 [8, 20]: 250 µM
IC80 [8, 21]: 500 µM
IC80 [9, 22]: 31.2 µM
IC80 [9, 23]: 250 µM
IC80 [10, 24]: 15.6 µM
IC80 [10, 25]: 15.6 µM
IC80 ([11]; Pichia kudriavzevii, E28, 24 h): 15.6 µM
IC80 ([11]; Pichia kudriavzevii, E28, 48 h): 62.5 µM

CCCCCCCNc1nccnc1C(N)=O [Compound 8, 3-(Heptylamino)pyrazine-2-carboxamide]
IC80 [12, 26]: ≥ 250 µM
logk [2]: 0.9198

NC(=O)c1nccnc1NC1CCCC1 [Compound 11, 3-(Cyclopentylamino)pyrazine-2-carboxamide]
IC80 [12, 26]: ≥ 250 µM
IC50 [1]: 25.8 µM
logk [2]: 0.2537
IC80 [4, 14]: 500 µM
IC80 [4, 15]: > 500 µM
IC80 [5, 16]: 500 µM
IC80 [5, 17]: > 500 µM
IC80 ([6]; Candida tropicalis, 156, 24 h): > 500 µM
IC80 ([6]; Candida tropicalis, 156, 48 h): > 500 µM
IC80 [7, 18]: 250 µM
IC80 [7, 19]: > 500 µM
IC80 [8, 20]: > 500 µM
IC80 [8, 21]: > 500 µM
IC80 [9, 22]: 500 µM
IC80 [9, 23]: > 500 µM
IC80 [10, 24]: 500 µM
IC80 [10, 25]: 500 µM
IC80 ([11]; Pichia kudriavzevii, E28, 24 h): 250 µM
IC80 ([11]; Pichia kudriavzevii, E28, 48 h): 500 µM

CCCCCNc1nccnc1C(N)=O [Compound 5, 3-(Pentylamino)pyrazine-2-carboxamide]
IC80 [12, 26]: ≥ 250 µM
IC80 [13]: < 250 µM
IC50 [1]: 38.6 µM
logk [2]: 0.4563
